# Experimental data published in US5081117A (priority 1989, dated 1992).
# Structures can show the parent of a compound that is named as a salt.
# Target: T1, acetylcholinesterase (AChE), rat striatum (Rattus norvegicus, UniProt P37136)
# T1 construct: corpora striata dissected free, weighed and homogenized in 19 volumes; from tissue; host or cells: homogenate of corpora striata of male Wistar rats
# T1 sequence (P37136 32-614): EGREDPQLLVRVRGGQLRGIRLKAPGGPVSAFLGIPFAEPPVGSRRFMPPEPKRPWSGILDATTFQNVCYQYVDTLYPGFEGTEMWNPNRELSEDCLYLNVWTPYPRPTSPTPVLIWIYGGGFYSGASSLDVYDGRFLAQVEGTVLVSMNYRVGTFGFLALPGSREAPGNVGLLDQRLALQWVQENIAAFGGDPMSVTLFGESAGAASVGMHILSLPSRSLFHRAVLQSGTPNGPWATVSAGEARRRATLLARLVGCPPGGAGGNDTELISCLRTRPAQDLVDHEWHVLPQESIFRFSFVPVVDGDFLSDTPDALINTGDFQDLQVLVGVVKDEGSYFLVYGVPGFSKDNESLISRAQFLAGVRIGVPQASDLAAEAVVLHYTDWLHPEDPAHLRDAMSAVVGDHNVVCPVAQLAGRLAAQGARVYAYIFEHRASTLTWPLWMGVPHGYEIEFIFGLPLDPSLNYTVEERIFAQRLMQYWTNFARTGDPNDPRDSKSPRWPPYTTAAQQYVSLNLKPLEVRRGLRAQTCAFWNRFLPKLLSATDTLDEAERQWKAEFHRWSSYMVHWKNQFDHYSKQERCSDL
# Assay: In vitro inhibition of acetylcholinesterase activity in rat striatum (modified Ellman method)
# Assay type: biochemical, Male Wistar rats
# From the text: Cholinesterases are found throughout the body, both in the brain and in serum. However, only brain acetylcholinesterase (AChE) distribution is correlated with central cholinergic innervation. […] We have determined in vitro inhibition of acetylcholinesterase activity in rat striatum according to the method described below.
# In Vitro Inhibition of Acetylcholinesterase Activity in Rat Striatum
# The method described below was used in this invention for assaying anticholinesterase activity. This is a modification of the method of Ellman et al., Biochem. Pharmacol. 7, 88 (1961).
# 1. 0.05M Phopsphate buffer, pH 7.2
# (a) 6.85 g NaH2 PO4 .cndot.H2 O/100 ml distilled H2 O
# (c) add (a) to (b) until pH reaches 7.2
# (a) 9.9 mg 5,5-dithiobisnitrobenzoic acid (DTNB) (0.25 mM)
# (b) 99 mg s-acetylthiocholine chloride (5 mM)
# (c) q.s. to 100 ml with 0.05M phosphate buffer, pH 7.2 (reagent 1)
# 3. For most assays, a 2 mM stock solution of the test drug is made up in a suitable solvent and serially diluted such that the final concentration in the preincubation step ranges from 10^-3 to 10^-6 M. Different concentrations may be used depending on the potency of the drug.
# Male Wistar rats are decapitated, brains rapidly removed, corpora striata dissected free, weighed and homogenized in 19 volumes (approximately 7 mg protein/ml) of 0.05M phosphate buffer, pH 7.2 using a Potter-Elvehjem homogenizer. A 50 microliter aliquot of the homogenate is added to 50 microliter vehicle of various concentrations of the test drug and preincubated for 10 minutes at room temperature.
# 1. For routine IC50 determinations the Abbott Bichromatic Analyzer, ABA-100, is used to determine acetylcholinesterase activity.
# Incubation temperature: 30° C.
# Reaction direction: down:endpoint
# Syringe plate: 1:101 dilution
# Following the 10 minute preincubation of the tissue (enzyme) with the inhibitor, the samples are mixed with the substrate chromogen buffer by the ABA-100. Using the indicated instrument settings the ABA-100 automatically reads the color reaction and prints out the results in enzyme units after 15 minutes.
# 2. The enzyme activity can also be measured with a Gilford 250 spectrophotometer. This method is used for more accurate kinetic measurements.
# Reagents are added to the reference and sample side of a split curvette as follows:
# The unhibited activity of the enzyme (tissue homogenate) is first determined. Test drugs are made up in a suitable solvent and added in suitable dilutions to the buffer vehicle. The reaction rate is determined by the slope of the recorded absorbance change. The actual rate (moles/liter/min) can be calculated as described in the following formula
# rate (moles/liter/min)=slope/(1.36×10^4)
row,SMILES,IC50
1,"CN1CC[C@@]2(C)c3c(OC(=O)NC4CCCCC4)cccc3N(C)[C@@H]12 (relative stereo) [cis-(±)-1,2,3,3a,8,8a-Hexahydro-1,3a,8-trimethylpyrrolo[2,3-b]indol-4-ylcyclohexyl carbamate fumarate]",550 nM
2,"CNC(=O)Oc1cccc2c1[C@]1(C)CCN(C)[C@@H]1N2C (relative stereo) [cis-(±)-1,2,3,3a,8,8a-Hexahydro-1,3a,8-trimethylpyrrolo[2,3-b]indol-4-ylmethylcarbamate fumarate]",60 nM
3,"CN1CC[C@@]2(C)c3ccc(OC(=O)NC4CCCCC4)cc3N(C)[C@@H]12 (relative stereo) [cis-(±)-1,2,3,3a,8,8a-Hexahydro-1,3a,8-trimethylpyrrolo[2,3-b]indol-6-ylcyclohexyl carbamate salicylate]",5500 nM
4,"CNC(=O)Oc1ccc2c(c1)N(C)[C@H]1N(C)CC[C@@]21C (relative stereo) [cis-(±)-1,2,3,3a,8,8a-Hexahydro-1,3a,8-trimethylpyrrolo[2,3-b]indol-6-ylmethylcarbamate salicylate]",230 nM
5,"CNC(=O)Oc1cc2c(cc1Br)[C@]1(C)CCN(C)[C@@H]1N2C (relative stereo) [cis-(±)-5-Bromo-1,2,3,3a,8,8a-hexahydro-1,3a,8-trimethylpyrrolo[2,3-b]indol-6-yl methyl carbamate sesquifumarate]",13 nM
